Laboratory results reported in ChEMBL document CHEMBL6074680, “Structure-Based Discovery of a Series of Covalent, Orally Bioavailable, and Selective BFL1 Inhibitors” (J Med Chem, 2024).
Calls of active or inactive are those of the source. No cut-off for these calls is given here.

Tests used:
[1] = target: Cannabinoid receptor 1 (Homo sapiens, UniProt P21554); assay: Inhibition of human CB1 receptor
[2] = system: OCI-Ly10; assay: Induction of apoptosis in human OCI-Ly10 cells assessed as caspase activation incubated for 6 hrs by caspaseGlo 3/7 reagent based assay; format: functional, cell-based
[3] = system: SU-DHL-1; assay: Antiproliferative activity against human SU-DHL-1 cells assessed as cell survival upto 100 uM incubated for 24 hrs by celltiter-glo assay; format: functional, cell-based
[4] = system: Mus musculus; assay: Effect on BFL1 level in po dosed SCID mouse measured for 6 hrs by MSD assay; format: functional, organism-based; conditions: dose 100-300 mg/kg
[5] = system: SU-DHL-1; assay: Induction of apoptosis in human SU-DHL-1 cells assessed as caspase activation in presence of AZD5991 incubated for 6 hrs by caspaseGlo 3/7 reagent based assay; format: functional, cell-based; conditions: SU-DHL-1, 6 h
[6] = target: Induced myeloid leukemia cell differentiation protein Mcl-1 (Homo sapiens, UniProt Q07820); assay: Inhibition of MCL1 (unknown origin) by FRET assay
[7] = system: SU-DHL-1; assay: Antiproliferative activity against human SU-DHL-1 cells assessed as cell viability incubated for 24 hrs by celltiter-glo assay; format: functional, cell-based; conditions: SU-DHL-1, 24 h
[8] = system: KARPAS-422; assay: Antiproliferative activity against BFL1 null human KARPAS-422 cells assessed as cell viability incubated for 24 hrs by celltiter-glo assay; format: functional, cell-based
[9] = system: Mus musculus; assay: Effect on cleaved caspase 3 level in po dosed SCID mouse measured for 6 hrs by MSD assay; format: functional, organism-based; conditions: dose 100-300 mg/kg
[10] = system: KARPAS-422; assay: Antiproliferative activity against human KARPAS-422 cells assessed as cell survival at 10 uM incubated for 24 hrs by celltiter-glo assay; format: functional, cell-based

Chain of Induced myeloid leukemia cell differentiation protein Mcl-1 (Q07820 whole entry): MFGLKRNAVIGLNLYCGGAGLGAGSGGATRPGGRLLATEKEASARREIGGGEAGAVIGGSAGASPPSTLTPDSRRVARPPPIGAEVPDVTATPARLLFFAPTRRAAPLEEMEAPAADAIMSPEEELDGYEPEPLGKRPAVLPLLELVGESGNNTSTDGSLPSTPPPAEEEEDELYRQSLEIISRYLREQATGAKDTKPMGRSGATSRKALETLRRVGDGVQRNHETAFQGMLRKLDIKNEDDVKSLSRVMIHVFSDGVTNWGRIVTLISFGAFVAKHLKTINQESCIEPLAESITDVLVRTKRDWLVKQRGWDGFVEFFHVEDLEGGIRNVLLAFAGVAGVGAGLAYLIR
Chain of Cannabinoid receptor 1 (P21554 whole entry): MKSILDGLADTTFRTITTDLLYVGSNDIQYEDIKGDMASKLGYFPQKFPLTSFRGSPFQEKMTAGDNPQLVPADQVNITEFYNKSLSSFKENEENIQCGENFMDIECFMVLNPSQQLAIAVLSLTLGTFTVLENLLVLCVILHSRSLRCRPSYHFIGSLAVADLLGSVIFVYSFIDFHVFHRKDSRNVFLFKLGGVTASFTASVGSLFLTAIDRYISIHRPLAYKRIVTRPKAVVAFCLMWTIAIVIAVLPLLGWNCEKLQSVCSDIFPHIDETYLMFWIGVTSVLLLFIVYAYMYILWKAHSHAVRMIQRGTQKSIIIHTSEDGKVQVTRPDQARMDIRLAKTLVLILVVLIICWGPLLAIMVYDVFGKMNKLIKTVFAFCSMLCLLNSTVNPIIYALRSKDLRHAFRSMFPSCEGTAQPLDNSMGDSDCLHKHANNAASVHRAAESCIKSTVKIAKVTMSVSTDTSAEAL

IC50 [1]: > 100000 nM
EC50 [5]: 350 nM
IC50 [6]: > 100000 nM
EC50 [7]: 250 nM
Activity [9]: Dose-dependent-effect
Structure (SMILES): C=CC(=O)N(c1ccc(O[C@@H]2CC[C@@H](N)C2)c(F)c1)[C@@H](C)c1ccc(Cl)cc1
Activity [2]: Active
Activity [3]: Active
Activity [4]: Dose-dependent-effect
Activity [8]: Active
Activity [10]: inactive
